Reference: US20250304609A1, “POLYMORPHIC FORM OF CHALCONE GLYCOSIDE COMPOUND, AND PREPARATION METHOD AND APPLICATION THEREOF” (ZHEJIANG YONGNING PHARMACEUTICAL CO., LTD., priority 2022, published 2025)
Where “and” joins values, the source holds several entries; their conditions need not be identical. Identical values can stand only once.

Assays:
[1] = Stability tests (accelerated and long-term) of salt and crystal forms; assay type: physicochemical; conditions: for Relevant substance, Single impurity / Relevant substance, Total impurities / Content determination: HPLC; for Content determination: content of C27H32O16; for Calcium element: ICP-MS; for pH: solution 5 mg per 1 ml in water
Description: The crystal form A for the stability data in the following table is prepared by the method of Example 1. The intermediate was adopted, water was used as a system, calcium carbonate was added for reaction, the solution was filtered and then allowed to stand for crystallization, and subjected to suction filtration, and the filter cake was washed with water and dried by suction, and dried under reduced pressure at 30° C. for 4-6 hours to obtain the crystal form A.
For stability tests and inspection methods, please see the attached stability solutions and quality standards.
[Character] Ocular estimate method: this sample was a yellow powder.
[Examination] PH value: this sample was taken and added with water to make a solution containing 5 mg per 1 ml. According to the pH value determination method (Chinese Pharmacopoeia 2020 Edition Fourth General Rule 0631), the pH value should be 5.0-7.0.
Relevant substances. Determination of relevant substances was performed according to high-performance liquid chromatography (Chinese Pharmacopoeia 2020 Edition Fourth General Rule 0512).
Test sample solution. An appropriate amount of this sample was taken, accurately weighed, dissolved by addition of a diluent, and diluted quantitatively to prepare a solution containing 1.0 mg per 1 ml. The solution was shaken well, filtered through a microporous filter membrane (0.45 μm), and the subsequent filtrate was taken.
Chromatographic conditions. Octadecylsilane bonded silica gel was used as a filler: […] potassium dihydrogen phosphate solution (1.36 g of potassium dihydrogen phosphate was taken into a 1000 mL measuring flask, dissolved by addition of water, and diluted to the scale) was used as a mobile phase A, methanol was used as a mobile phase B, and gradient elution was performed according to the following table; the detection wavelength was 375 nm; and the injection volume was 5 μl.
Limit If there were impurity peaks in the chromatogram of the test sample solution, the area of a single impurity peak shall not be greater than 0.005 times (0.5%) the total peak area, and the sum of the areas of each impurity peak shall not be greater than 0.015 times (1.5%) the total peak area. Chromatographic peaks less than 0.02% of the peak area of the main component can be ignored.
Water content This sample was taken, and according to the method for water content determination (Chinese Pharmacopoeia 2020 Edition Fourth General Rule 0832 First Method), the water content shall not exceed 15.0%.
Calcium element Determination of calcium element was performed according to inductively coupled plasma mass spectrometry (Chinese Pharmacopoeia 2020 Edition Fourth General Rule 0412).
[Content determination] Content determination was performed according to high-performance liquid chromatography (Chinese Pharmacopoeia 2020 Edition Fourth General Rule 0512).
Chromatographic conditions. Octadecylsilane bonded silica gel was used as a filler, methanol-acetonitrile-water-phosphoric acid (26:2:72:0.04) was used as a mobile phase, and detection wavelength was 403 nm; and the injection volume was 10 μl.
Determination method. The test sample solution and comparative sample solution were accurately measured, and injected into the liquid chromatograph separately, and the chromatogram was recorded. The content of C27H32O16 in the test sample was calculated by the peak area according to the external standard method.

H9c2 cells = test: Survival rate of H9c2 cells after oxygen-glucose deprivation/reperfusion (OGD/R); assay type: cell-based; conditions: 20, 40 and 80 μg/ml
Description: (§1) Establishment of cellular oxygen-glucose deprivation/reperfusion (OGD/R) models. […] ischemia was simulated by incubation in a three-gas incubator (95% N2, 5% CO2) using sugar-free culture medium for 8-h culture, followed by transfer to a normal CO2 incubator for 12-h culture to simulate reperfusion.

H9c2 cardiomyocytes [2] = test: Hoechst 33342 staining method for cell apoptosis detection (OGD/R); assay type: cell-based
Description: as §1
(§2) Hoechst 33342 staining method for cell apoptosis detection. H9c2 cardiomyocytes were inoculated into a 6-well plate at a density of 2×10^5 cells/well. When the cells were completely adhered to the wall and grew to an appropriate degree of confluence, the cells were divided into a control group, a YN17 80 μg/ml group, a model group, and an OGD/R+80 μg/ml group. In the blank group, 2 mL of a fresh culture medium was added to each well and cultured in a CO2 incubator. The same amount of sugar-free DMEM was added to each well in the model group. After culture in a three-gas incubator for 8 h, the sugar-free DMEM was replaced with a fresh culture medium and transferred to a CO2 incubator for additional 12-h culture. The administration group was pretreated with different concentrations of YN17 for 24 h before OGD/R modeling. […] After the treatment of each group, staining was performed according to the instructions of the Hoechst 33342 staining solution, and the nucleus morphology and fluorescence intensity of each group were observed under a fluorescence microscope.

H9c2 cardiomyocytes [3] = test: Flow cytometry (Annexin V-FITC) for cell apoptosis detection (OGD/R); assay type: cell-based; conditions: OGD/R + 80 μg/ml, 24 h pretreatment; control 7.9%, model 20.3%
Description: as §1
as §2, with “group.” for “group. After culture in a three-gas incubator for 8 h, the sugar-free DMEM was replaced with a fresh culture medium and transferred to a CO2 incubator for additional 12-h culture. The administration group was pretreated with different concentrations of YN17 for 24 h before OGD/R modeling.”
Flow cytometry for cell apoptosis detection. […] After the treatment of each group, staining was performed according to the instructions of the Annexin V-FITC cell apoptosis detection kit, and cell apoptosis was detected by a flow cytometer.

[4] = tested on: cerebral ischemia-reperfusion rat models; test: Cerebral ischemia-reperfusion (MCAO) rat model, different doses of YN17; assay type: in vivo, rats; conditions: for Symptom score: 24 h after administration, 0-5 points, model 3.3 ± 0.7; for Symptom score / Percentage of whole brain tissue infarction (%): Mean ± SD; for content of GSH-px in serum / content of SOD in serum: 24 h after modeling, p<0.001; for Percentage of whole brain tissue infarction (%): 24 h, TTC staining, model 17.61 ± 7.45
Description: Establishment of cerebral ischemia-reperfusion rat models. Rats were anesthetized with pentobarbital sodium (45 mg/kg), the neck skin was prepared, the surgical skin was disinfected with iodophor, the neck skin was cut in the middle, the neck muscles were separated, and the left common carotid artery (CCA) was separated until the branches of the internal carotid artery (ICA) and external carotid artery (ECA) were exposed. The proximal end of the common carotid artery was ligated, the distal end of the common carotid artery was clamped with an artery clip, an incision was made between the two ligated ends of the common carotid artery, the MCAO suture was inserted, and the suture was loosely ligated to the common carotid artery. The MCAO suture was inserted into the internal carotid artery, so that the suture reached the branches of the internal carotid artery to the middle cerebral artery (MCA), blocking the blood supply of the MCA and causing ischemia, the MCAO suture was fixed, and the surgical incision was sutured. After 1 h of ischemia, the MCAO suture was withdrawn into the common carotid artery to restore blood supply to the middle cerebral artery.
Drug administration. After the surgery, the rats were immediately injected with YN17 (5 mg/kg, 10 mg/kg and 20 mg/kg) via the tail vein, while the positive control group was injected with 3 mg/kg of edaravone via the tail vein. The rats were euthanized under anesthesia 24 hours after drug administration.
Animal neurobehavioral assessment. 24 hours after administration, the activity of the rats after landing was observed, and the behavior disorders of the rats were scored. The scoring method was as follows: • 0 points: no loss of neurological function and normal activity; • 1 point: failure to fully extend the left forepaw on the opposite side of the lesion; • 2 points: failure of the paralyzed side to resist the thrust from the opposite side; • 3 points: circling to the left side when crawling (tail-chasing sign); • 4 points: falling to the paralyzed side when shaking or walking; and • 5 points: trance or loss of consciousness.
Determination of the extent of cerebral infarction. The rats were euthanized under anesthesia 24 hours after drug administration. The brain was removed and rinsed with normal saline at 4° C. The brain was frozen at −80° C. for 10 min, and coronal slices with a thickness of 2 mm were cut from posterior to anterior, incubated in a 1% TTC solution for 10 min at 37° C., and fixed with formalin overnight after staining. The photos of the brain slices were taken and saved. The area of each brain slice and the area of the infarcted area were measured by Image Pro software, and the percentage of the area of focuses of infarct to the total area was calculated.

[5] = tested on: cerebral ischemia-reperfusion in rats; test: Cerebral ischemia-reperfusion rat model, comparative test of calcium salt YN17 and sodium salt YN17-ST; assay type: in vivo; conditions: 10 mg/kg tail vein after 1 h ischemia; 24 h; Mean ± SEM; model 51.37 ± 2.66
Description: Establishment of cerebral ischemia-reperfusion rat models. Rats were anesthetized with pentobarbital sodium (45 mg/kg), the neck skin was prepared, the surgical skin was disinfected with iodophor, the neck skin was cut in the middle, the neck muscles were separated, and the left common carotid artery (CCA) was separated until the branches of the internal carotid artery (ICA) and external carotid artery (ECA) were exposed. […]
Determination of the extent of cerebral infarction. […] The area of each brain slice and the area of the infarcted area were measured by Image Pro software, and the percentage of the area of focuses of infarct to the total area was calculated.
The models were established and administered according to the similar method described above (YN17 (10 mg/kg) and YN17-ST (10 mg/kg) were injected into the tail vein immediately after blood supply to the middle cerebral artery of the rats was restored, and 5% glucose was injected into the tail vein in the model group. The rats were euthanized under anesthesia 24 hours after drug administration, and the extent of cerebral infarction was measured. The results were as follows: […]

[6] = Accelerated 6 months, 40° C. ± 2° C./75% ± 5% RH
[7] = Long-term 6 months, 25° C. ± 2° C./60% ± 5% RH
[8] = 3 mg/kg tail vein, listed as edaravone

SMILES | Character ([1]; 0 months) | Water content ([1]; 0 months) [%] | Relevant substance, Single impurity ([1]; 0 months) [%] | Relevant substance, Total impurities ([1]; 0 months) [%] | Content determination ([1]; 0 months) [%] | pH ([1]; 0 months) | Character [1, 6] | Water content [1, 6] [%] | Relevant substance, Single impurity [1, 6] [%] | Relevant substance, Total impurities [1, 6] [%] | Content determination [1, 6] [%] | pH [1, 6] | Character [1, 7] | Water content [1, 7] [%] | Relevant substance, Single impurity [1, 7] [%] | Relevant substance, Total impurities [1, 7] [%] | Content determination [1, 7] [%] | pH [1, 7] | Percentage of hemispheric tissue infarction (%) [5] | other results
O=C(/C=C/c1ccc(O)cc1)C1=C(O)C([C@@H]2O[C@H](CO)[C@@H](O)[C@H](O)[C@H]2O)=C([O-])[C@@](O)([C@@H]2O[C@H](CO)[C@@H](O)[C@H](O)[C@H]2O)C1=O.[Ca+2].[OH-] [YN17, (S)-3,6-dihydroxy-4-((E)-3-(4-hydroxyphenyl)acryloyl)-5-oxo-6-((2R,3R,4S,5S,6R)-3,4,5-trihydroxy-6-(hydroxymethyl)tetrahydro-2H-pyran-2-yl)-2-((2S,3R,4R,5S,6R)-3,4,5-trihydroxy-6-(hydroxymethyl)tetrahydro-2H-pyran-2-yl)cyclohexyl-1,3-diene-1-hydroxycalcium] | Yellow | 9.9 | 0.25 | 0.25 | 97.0 | 5.9 | Yellow | 10.1 | 0.25 | 0.54 | 96.5 | 5.8 | Yellow | 10.7 | 0.25 | 0.32 | 96.7 | 5.9 | 20.47% and 20.47 ± 3.56 % | Calcium element ([1]; 0 months): 3.19%; Calcium element [1, 6]: 3.26%; Calcium element [1, 7]: 3.21%; Stability (comparison of salt forms, relevant substances and contents) ([1]; summary of Table 1 and Table 2): very stable; survival rate of cells (H9c2 cells): can improve the survival rate of cells in different degrees; apoptosis characteristics of nuclei without OGD/R (H9c2 cardiomyocytes [2]; 80 μg/ml group without OGD/R): no obvious apoptosis characteristics; number of densely and heavily stained cell nuclei (apoptosis) (H9c2 cardiomyocytes [2]; OGD/R + 80 μg/ml, 24 h pretreatment): significantly reduced; apoptosis rate (H9c2 cardiomyocytes [3]): 13.3%; Symptom score ([4]; 5 mg/kg tail vein): 2.8 ± 1.0; content of GSH-px in serum ([4]; 5 mg/kg, 10 mg/kg and 20 mg/kg): significantly increase; content of SOD in serum ([4]; 10 mg/kg and 20 mg/kg): significantly increase
O=C(C=Cc1ccc(O)cc1)C1=C(O)C(C2OC(CO)C(O)C(O)C2O)=C([O-])C(O)(C2OC(CO)C(O)C(O)C2O)C1=O.[Na+] (stereo not shown) [YN17-ST] | Yellow | 2.3 | 0.36 | 0.95 | 95.3 | 6.0 | Yellow | 7.3 | 6.41 | 9.53 | 81.5 | 6.8 | Yellow | 5.7 | 1.86 | 3.02 | 91.7 | 6.4 | 23.35% and 23.35 ± 7.37 % | –
CC1=NN(c2ccccc2)C(=O)C1 [Edaravone, edaravone] | – | – | – | – | – | – | – | – | – | – | – | – | – | – | – | – | – | – | – | Percentage of whole brain tissue infarction (%) ([4]; 3 mg/kg tail vein): 10.58 ± 5.31 %; Percentage of whole brain tissue infarction (%) [4, 8]: significantly inhibit; Symptom score ([4]; 3 mg/kg tail vein): 2.1 ± 1.3; Symptom score [4, 8]: significantly improve; content of GSH-px in serum ([4]; 3 mg/kg): significantly increase; content of SOD in serum ([4]; 3 mg/kg): significantly increase
